Laboratory results: patent publication US20170052170A1, “NOVEL CELL LINES AND METHODS” (priority 2009, published 2017)

Tests used:
[1] = molecular target: T1, sweet taste receptor (human T1R2 and T1R3 subunits, mouse Gα15) (Homo sapiens, UniProt Q7RTX0+Q8TE23, C757R/I191V/I486V/R317G); assay: sweet taste receptor-expressing cell-based assay (calcium flux); conditions: natural, high intensity and artificial sweeteners; FIGS. 23 and 24
T1 construct: expressed in transfected cells; host or cells: HEK293T (ATCC CRL-11268)
T1 sequence (Q8TE23 20-839 I191V/R317G/I486V): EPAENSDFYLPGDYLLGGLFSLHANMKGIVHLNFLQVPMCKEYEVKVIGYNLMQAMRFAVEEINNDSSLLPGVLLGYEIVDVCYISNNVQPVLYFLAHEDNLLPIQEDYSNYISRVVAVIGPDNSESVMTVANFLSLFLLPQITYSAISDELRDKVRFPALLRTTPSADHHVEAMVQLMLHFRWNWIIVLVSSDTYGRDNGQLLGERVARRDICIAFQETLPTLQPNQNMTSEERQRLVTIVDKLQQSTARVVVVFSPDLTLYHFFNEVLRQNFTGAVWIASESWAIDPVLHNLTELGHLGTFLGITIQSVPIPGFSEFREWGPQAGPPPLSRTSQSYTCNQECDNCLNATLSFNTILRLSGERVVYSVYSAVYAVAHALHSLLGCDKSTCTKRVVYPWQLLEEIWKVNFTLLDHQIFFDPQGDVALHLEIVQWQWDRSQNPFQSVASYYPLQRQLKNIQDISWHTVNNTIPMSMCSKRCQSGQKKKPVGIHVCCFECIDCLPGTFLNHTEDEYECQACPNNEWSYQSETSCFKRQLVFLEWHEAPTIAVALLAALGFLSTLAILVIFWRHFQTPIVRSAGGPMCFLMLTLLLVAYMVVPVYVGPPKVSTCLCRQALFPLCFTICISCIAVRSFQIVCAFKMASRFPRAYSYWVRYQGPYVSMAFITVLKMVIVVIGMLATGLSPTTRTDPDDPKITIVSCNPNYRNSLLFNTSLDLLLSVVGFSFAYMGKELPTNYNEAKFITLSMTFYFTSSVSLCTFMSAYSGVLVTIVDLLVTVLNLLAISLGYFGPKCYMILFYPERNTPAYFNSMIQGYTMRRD
T1 sequence (Q7RTX0 21-852 C757R): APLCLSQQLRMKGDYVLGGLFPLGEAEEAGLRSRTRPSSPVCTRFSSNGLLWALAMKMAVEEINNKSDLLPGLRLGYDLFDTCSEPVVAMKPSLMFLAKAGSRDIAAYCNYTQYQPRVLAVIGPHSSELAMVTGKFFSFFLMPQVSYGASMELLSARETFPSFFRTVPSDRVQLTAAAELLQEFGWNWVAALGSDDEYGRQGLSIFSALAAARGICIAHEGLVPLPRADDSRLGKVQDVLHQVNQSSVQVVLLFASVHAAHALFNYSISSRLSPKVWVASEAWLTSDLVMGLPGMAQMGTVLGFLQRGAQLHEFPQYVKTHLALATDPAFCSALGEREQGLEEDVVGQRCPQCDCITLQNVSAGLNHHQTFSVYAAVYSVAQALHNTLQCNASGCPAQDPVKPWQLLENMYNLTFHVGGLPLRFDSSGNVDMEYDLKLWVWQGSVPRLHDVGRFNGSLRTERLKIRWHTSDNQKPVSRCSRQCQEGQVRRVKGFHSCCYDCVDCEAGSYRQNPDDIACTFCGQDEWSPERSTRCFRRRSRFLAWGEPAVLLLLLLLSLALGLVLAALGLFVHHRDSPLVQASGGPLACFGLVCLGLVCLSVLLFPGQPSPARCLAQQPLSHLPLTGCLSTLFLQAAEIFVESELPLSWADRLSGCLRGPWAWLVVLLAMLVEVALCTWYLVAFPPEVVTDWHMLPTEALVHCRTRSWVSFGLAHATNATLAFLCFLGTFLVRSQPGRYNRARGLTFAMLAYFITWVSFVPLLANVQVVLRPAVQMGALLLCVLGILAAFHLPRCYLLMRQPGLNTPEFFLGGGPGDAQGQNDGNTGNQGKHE
Description: FIG. 24 (A-C) is series of line graphs representing the data obtained in various dose response experiments using sweet taste receptor agonists in a sweet taste receptor-expressing cell-based assay (using cells of this invention). (A) The responses of a sweet taste receptor-expressing cell line to natural caloric sweeteners were plotted as a function of the agonist concentration. (B) Dose response curves of common artificial sweeteners in a sweet taste receptor-expressing cell-based assay. (C) Dose response curves of natural high-intensity sweeteners in a sweet taste receptor-expressing cell-based assay.
FIG. 25 is a series of representative response traces generated after performing a sweet taste receptor-expressing cell-based assay using cells of this invention.
To identify a taste receptor modulator (e.g., umami taste receptor modulator or sweet taste receptor modulator), one exposes a cell or cell line of the invention to a test compound under conditions in which the taste receptor (e.g., umami taste receptor or sweet taste receptor) would be expected to be functional and then detects a statistically significant change (e.g., p<0.05) in taste receptor activity (e.g., umami taste receptor activity or sweet taste receptor activity) compared to a suitable control, e.g., cells that are not exposed to the test compound. Positive and/or negative controls using known agonists or antagonists and/or cells expressing different combinations of taste receptor subunits (e.g., umami taste receptor subunits or sweet taste receptor subunits) (and optionally a G protein) may also be used. In some embodiments, the taste receptor activity (e.g., umami taste receptor activity or sweet taste receptor activity) to be detected and/or measured is calcium release from the endoplasmic reticulum as a result of the down stream signaling events following taste receptor activation (e.g., umami taste receptor activation or sweet taste receptor activation). One of ordinary skill in the art would understand that various assay parameters may be optimized, e.g., signal to noise ratio.
See, e.g., FIGS. 23 and 24.

[2] = molecular target: T2, sweet taste receptor (T1R2/T1R3) (Homo sapiens, UniProt Q7RTX0+Q8TE23, C757R/I191V/I486V/R317G); assay: Sweet cell-based calcium flux assay, HEK293T cells expressing T1R2, T1R3 and mouse Gα15
T2 construct: expressed in transfected cells; host or cells: HEK293T (ATCC CRL-11268)
T2 sequence (Q8TE23 20-839 I191V/R317G/I486V): T1 sequence (Q8TE23 20-839 I191V/R317G/I486V)
T2 sequence (Q7RTX0 21-852 C757R): T1 sequence (Q7RTX0 21-852 C757R)
Description: Plates are then loaded on a high throughput plate reader (Hamamatsu FDSS). […] Calcium flux is detected for 90 seconds.

## O=C(CO)[C@@H](O)[C@H](O)[C@H](O)CO [fructose]
[1]
  response of sweet taste receptor cells and cell lines to known classes of sweet compounds: respond
[2]
  EC50: < 4.3 mM
[2]; FIG. 20, high density, coated plates, low glucose media, serum deprivation
  response of cells grown in the "Final" growth conditions: respond robustly
